TUNEL-positive cells data for 1 substance are collected here from patent US20080138280A1, “Composition and Methods For Inhibiting Cell Survival” (The Cleveland Clinic Foundation, priority 2003, published 2008).

This experiment has as its system A375 cells. Nature of the experiment: TUNEL apoptosis assay. It counts as cell-based, human. The conditions noted are these: single agent, 36 h; NO-Cbl 100 μM or Apo2L/TRAIL 100 ng/ml. How it is done: TUNEL assay. Please see FIG. 3. A375 cells were cultured for 36 h and exposed to various treatments (control, NO-Cbl, Apo2L/TRAIL and NO-Cbl+Apo2L/TRAIL. Apoptotic cells were detected by TUNEL (terminal deoxynucleotidyltransferase-mediated dUTP-biotin nick end-labeling) staining using a commercially available kit (APO-BRDU kit, BD-Pharmingen, San Diego, Calif.). Cells were processed according to the manufacturer's recommended protocol. The percentage of FITC-positive cells was analyzed by fluorescent activated cell scanning (FACS, Becton Dickinson, Facsvantage, San Diego, Calif.).
Cell line A375 has a defect in endogenous TRAIL gene induction therefore, additive cellular responses from exogenous TRAIL/Apo2L were avoided. TUNEL assays of A375 cells treated in vitro with NO-Cbl, Apo2L/TRAIL, or the combination were performed. FIG. 3 illustrates a TUNEL apoptosis assay in accordance with the present invention. A375 cells were treated with NO-Cbl, Apo-2L/TRAIL, and the combination. […] The highest levels of apoptosis were observed when cells were pre-treated with NO-Cbl followed by Apo2L/TRAIL treatment. Treatment for 36 h with NO-Cbl (100 μM) or Apo2L/TRAIL (100 ng/ml) induced 6.2% and 5.4% TUNEL-positive cells, respectively.

As to nitrosylcobalamin [NO-Cbl], the TUNEL-positive cells came to 6.2%.
